# Like-named read-outs stand apart in the source and are kept apart here.
# How the values were obtained:
# [1] = system: kidney and liver; conditions: VAC treatment; cited from earlier work
# [2] = system: bone fracture; experiment: Local VAC application without a carrier, fracture healing (preliminary data); type: in vivo; conditions: at the dosages tested
# Text: This evidence opens up many future applications to the use of VAC alone, or incorporated with a carrier as an option for fracture healing.
# [3] = system: bone homeostasis; conditions: cited from earlier work
# [4] = cited from earlier work
smiles,measurement,setting,value
"CC(=O)/C=C(/C)[O-].CC(=O)/C=C(/C)[O-].[O]=[V+2] [VAC, vanadyl acetylacetonate]",function or structure of kidney and liver,[1],does not impair the function or structure of kidney and liver
same,speed of bone healing versus saline controls,[2],more than twice as rapidly as saline controls
same,effect on bone parameters,[3]; diabetic rats,"improved the ultimate strength, Tb,Th, MAR, and plasma osteocalcin"
same,effect on bone parameters,[3]; normal rats,did not affect any bone parameters
same,tolerance / signs of toxicity,[4]; after several days,no signs of toxicity
same,tissue distribution / accumulation,[4]; widely distributed to all tissues,greatest accumulation was within femur tissue

# Source: patent publication US9144633B2, “Implantable devices coated with insulin-mimetic vanadium compounds and methods thereof” (RUTGERS, THE STATE UNIVERSITY OF NEW JERSEY, priority 2010, dated 2015)
